≈ marks a conversion by molar mass, not a printed value.
Key:
Coagulation factor X = Coagulation factor X (Homo sapiens, UniProt P00742); assay: Inhibition of human factor Xa
Staphylococcus aureus [1] = assay: Antibacterial activity against methicillin-resistant Staphylococcus aureus assessed as reduction in microbial growth by CLSI based broth microdilution method; format: functional
Staphylococcus aureus [2] = assay: Antibacterial activity against Linezolid-resistant Staphylococcus aureus assessed as reduction in bacterial growth; format: functional
[3] = system: Staphylococcus epidermidis; assay: Antibacterial activity against Methicillin-resistant Staphylococcus epidermidis assessed as bacterial growth inhibition; format: functional
[4] = system: Staphylococcus epidermidis; assay: Antibacterial activity against Staphylococcus epidermidis assessed as reduction in microbial growth after 24 hrs by CLSI based microdilution method; format: functional
[5] = system: Staphylococcus epidermidis; assay: Antibacterial activity against linezolid-resistant Staphylococcus epidermidis assessed as reduction in bacterial growth; format: functional
Staphylococcus aureus [6] = assay: Antibacterial activity against Staphylococcus aureus assessed as reduction in microbial growth by CLSI based broth microdilution method; format: functional
Pseudomonas aeruginosa [7] = assay: Antibacterial activity against Pseudomonas aeruginosa PAO1 assessed as bacterial growth inhibition incubated for 24 hrs by microtiter plate reader analysis; format: functional
Pseudomonas aeruginosa [8] = assay: Antibacterial activity against wild-type Pseudomonas aeruginosa PAO1 incubated for 24 hrs by broth microdilution method; format: functional
Haemophilus influenzae = assay: Antibacterial activity against Haemophilus influenzae assessed as bacterial growth inhibition measured after 16 to 24 hrs by broth microdilution assay; format: functional; conditions: time 16-24 hrs
Staphylococcus aureus [9] = assay: Antimicrobial activity against […] Staphylococcus aureus ATCC 25923 assessed as reduction in cell growth by microdilution method; format: functional
Enterococcus faecalis [10] = assay: Antibacterial activity against vancomycin-resistant Enterococcus faecalis NR 31912 assessed as inhibition of bacterial growth; format: functional
Staphylococcus aureus [11] = assay: Antibacterial activity against Methicillin-sensitive Staphylococcus aureus ATCC 9144 assessed as reduction in bacterial growth; format: functional
[12] = system: Mycobacterium tuberculosis; assay: Antitubercular activity against XDR Mycobacterium tuberculosis X24 assessed as bacterial growth inhibition measured for 9 days; format: functional; conditions: X24, 216 h, time 9 day
[13] = system: Mycobacterium tuberculosis; assay: Antimycobacterial activity against Mycobacterium tuberculosis H37Rv assessed as bacterial growth inhibition incubated for 7 days by fluorescence based analysis; format: functional; conditions: 168 h, time 7 day
Staphylococcus aureus [14] = assay: Antimicrobial activity against Methicillin-sensitive Staphylococcus aureus ATCC 29213 assessed as reduction in bacterial growth; format: functional
Staphylococcus aureus [15] = assay: Antibacterial activity against Methicillin-resistant Staphylococcus aureus assessed as fold reduction in bacterial growth incubated for 14 to 16 hrs by microbroth dilution method; format: functional; conditions: time 14-16 hrs
Enterococcus faecalis [16] = assay: Antibacterial activity against vancomycin-resistant Enterococcus faecalis incubated for 18 hrs by broth microdilution method; format: functional
Staphylococcus aureus [17] = assay: Antimicrobial activity against […] Staphylococcus aureus ATCC 25923 assessed as reduction in microbial growth; format: functional
[18] = system: Mycobacterium tuberculosis; assay: Antibacterial activity against Mycobacterium tuberculosis H37Rv assessed as bacterial growth inhibition incubated for 8 days by resazurin assay; format: functional; conditions: 192 h, time 8 day
[19] = system: Staphylococcus epidermidis; assay: Antibacterial activity against Methicillin-resistant Staphylococcus epidermidis assessed as inhibition of bacterial growth; format: functional
Staphylococcus aureus [20] = assay: Antibacterial activity against Methicillin-resistant Staphylococcus aureus assessed as inhibition of bacterial growth; format: functional

Coagulation factor X, sequence (P00742 41-179 limits assumed): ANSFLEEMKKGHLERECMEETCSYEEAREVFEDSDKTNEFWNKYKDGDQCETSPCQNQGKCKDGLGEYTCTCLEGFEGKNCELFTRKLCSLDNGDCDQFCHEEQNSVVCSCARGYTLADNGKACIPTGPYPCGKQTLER
Coagulation factor X, sequence (P00742 235-488 limits assumed): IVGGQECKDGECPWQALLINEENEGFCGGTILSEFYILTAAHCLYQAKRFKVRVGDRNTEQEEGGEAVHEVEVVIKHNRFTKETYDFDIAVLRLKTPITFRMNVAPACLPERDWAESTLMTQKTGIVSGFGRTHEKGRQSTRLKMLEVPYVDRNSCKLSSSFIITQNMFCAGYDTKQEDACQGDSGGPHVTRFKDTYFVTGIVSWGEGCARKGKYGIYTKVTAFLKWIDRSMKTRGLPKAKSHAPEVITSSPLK

O=C(NC[C@@H]1OC(=O)N2c3ccc(N4CCOC4=O)cc3OC[C@@H]12)c1ccc(Cl)s1
IC50 (Coagulation factor X): 15.7 µM

O=C(NC[C@@H]1OC(=O)N2c3ccc(N4CCOCC4=O)cc3OC[C@H]12)c1ccc(Cl)s1
IC50 (Coagulation factor X): 0.05 µM

O=C(NC[C@@H]1OC(=O)N2c3ccc(N4CCOCC4=O)cc3NC[C@@H]12)c1ccc(Cl)s1
IC50 (Coagulation factor X): 0.005 µM

COC(=O)C1(C(=O)OC)Cc2cc(-c3ccc(N4C[C@H](CNC(C)=O)OC4=O)cc3F)ccc2N2CCOCC21 (some centres not stated)
MIC (Staphylococcus aureus [1]): 4 µg/mL | MIC (Staphylococcus aureus [2]): > 32 µg/mL | MIC [3]: 4 µg/mL (≈ 7.2 µM) | MIC [4]: 4 µg/mL | MIC [5]: 32 µg/mL (≈ 57.6 µM) | MIC (Staphylococcus aureus [6]): 8 µg/mL

CC(=O)NCC1CN(c2ccc(N3CCN(C(=O)CCOCCOCn4cc(CNC(=O)C(CNC(=O)C(CNC(=O)CNC(=O)c5cccc(O)c5O)NC(=O)c5cccc(O)c5O)NC(=O)c5cccc(O)c5O)nn4)CC3)c(F)c2)C(=O)O1 (configuration not stated)
MIC (Pseudomonas aeruginosa [7]): 64 µM (≈ 76.8 µg/mL) | MIC (Pseudomonas aeruginosa [8]): > 64 µM

NS(=O)(=O)c1ccc(N2C[C@H](CO)OC2=O)cc1
MIC (Haemophilus influenzae): 16 µg/mL (≈ 58.8 µM)

O=C(NC[C@@H]1OC(=O)N2c3ccc(N4CCCCC4=O)cc3SC[C@@H]12)c1ccc(Cl)s1
IC50 (Coagulation factor X): 0.004 µM

CC(=O)N(C)c1ccc2c(c1)OC[C@H]1[C@H](CNC(=O)c3ccc(Cl)s3)OC(=O)N21
IC50 (Coagulation factor X): 2.21 µM

CN1CCN(c2ccc(N3C[C@H](CO)OC3=O)cc2F)C=N1 [DELPAZOLID]
MIC90 (Staphylococcus aureus [9]): 1 µg/mL | MIC90 (Enterococcus faecalis [10]): 0.5 µg/mL (≈ 1.62 µM) | MIC90 (Staphylococcus aureus [11]): 1 µg/mL (≈ 3.24 µM) | MIC90 [12]: 0.5 µg/mL (≈ 1.62 µM)

O=C(NC[C@@H]1OC(=O)N2c3ccc(N4CCOCC4=O)cc3SC[C@@H]12)c1ccc(Cl)s1
IC50 (Coagulation factor X): 0.002 µM

CC(=O)NC[C@H]1CN(c2ccc(N3CCSCC3)c(F)c2)C(=O)O1 [SUTEZOLID]
MIC [13]: 0.03 µg/mL (≈ 0.0849 µM)

O=C(NC[C@@H]1OC(=O)N2c3ccc(N4CCOCC4=O)cc3S(=O)(=O)C[C@@H]12)c1ccc(Cl)s1
IC50 (Coagulation factor X): 0.02 µM

CC(=O)NC[C@H]1CN(c2ccc(-c3ccc4c(c3)CC3(C(=O)NC(=O)NC3=O)C3CCCCN43)c(F)c2)C(=O)O1 (some centres not stated)
MIC (Staphylococcus aureus [1]): < 1 µg/mL | MIC (Staphylococcus aureus [2]): 16 µg/mL (≈ 29.1 µM) | MIC [3]: < 1 µg/mL | MIC [4]: 2 µg/mL | MIC [5]: > 32 µg/mL | MIC (Staphylococcus aureus [6]): 2 µg/mL

CC(=O)NC[C@H]1CN(c2ccc(-c3ccc4c(c3)CC3(C(=O)NCNC3=O)C3CCCCC43)c(F)c2)C(=O)O1 (some centres not stated)
MIC (Staphylococcus aureus [1]): 8 µg/mL | MIC (Staphylococcus aureus [2]): > 32 µg/mL | MIC [3]: 4 µg/mL (≈ 7.48 µM) | MIC [4]: 8 µg/mL | MIC [5]: > 32 µg/mL | MIC (Staphylococcus aureus [6]): 8 µg/mL

CC(=O)NC[C@H]1CN(c2ccc(-c3ccc4c(c3)CC3(C(=O)NC(=O)NC3=O)C3COCCN43)c(F)c2)C(=O)O1 (some centres not stated)
MIC (Staphylococcus aureus [1]): 4 µg/mL | MIC (Staphylococcus aureus [2]): 32 µg/mL (≈ 58 µM) | MIC [3]: 2 µg/mL (≈ 3.63 µM) | MIC [4]: 4 µg/mL | MIC [5]: 32 µg/mL (≈ 58 µM) | MIC (Staphylococcus aureus [6]): 4 µg/mL

Cn1nnc(-c2ccc(-c3ccc(N4C[C@H](CO)OC4=O)cc3F)cn2)n1 [TEDIZOLID]
MIC90 (Staphylococcus aureus [14]): 0.25 µg/mL (≈ 0.675 µM) | fold change (FC) (Staphylococcus aureus [15]): 4 | MIC90 (Enterococcus faecalis [16]): 0.5 µg/mL (≈ 1.35 µM) | MIC90 (Staphylococcus aureus [17]): 0.25 µg/mL

O=C([C@@H](O)CO)N1CC=C(c2c(F)cc(N3C[C@H](COc4ccon4)OC3=O)cc2F)CC1 [POSIZOLID]
MIC90 [18]: 1 µg/mL (≈ 2.15 µM)

CC(=O)NC[C@H]1CN(c2ccc(C(C)=O)cc2)C(=O)O1 [DUP-721]
MIC [19]: 4 µg/mL (≈ 14.5 µM) | MIC (Staphylococcus aureus [20]): 4 µg/mL (≈ 14.5 µM)

O=C1NC(=O)C2(Cc3cc(-c4ccc(N5C[C@H](CO)OC5=O)cc4F)ccc3N3CCCCC32)C(=O)N1 (some centres not stated)
MIC (Staphylococcus aureus [1]): 2 µg/mL | MIC (Staphylococcus aureus [2]): 16 µg/mL (≈ 31.5 µM) | MIC [3]: < 1 µg/mL | MIC [4]: 2 µg/mL | MIC [5]: 32 µg/mL (≈ 62.9 µM) | MIC (Staphylococcus aureus [6]): 4 µg/mL

Source: ChEMBL document CHEMBL5550106, “Recent advances in the exploration of oxazolidinone scaffolds from compound development to antibacterial agents and other bioactivities” (Eur J Med Chem, 2024)
